The structures appear in SMILES notation.

These results are taken from patent US8557836B2 (priority 2008, dated 2013).

The assay has as its target full length Udorn AM2 protein (Influenza A virus, UniProt P0DOF5). Kind of assay: cell-based. The assay is classed as cell-based, influenza virus A/Udorn/72. The note with it: for remaining activity at 100 µM: pH 5.5, read-out: AM2 Remaining Activity After 100 μM inhibition; for inhibition of AM2 (in words): 100 μM.

Sequence of full length Udorn AM2 protein (P0DOF5 whole entry, looked up): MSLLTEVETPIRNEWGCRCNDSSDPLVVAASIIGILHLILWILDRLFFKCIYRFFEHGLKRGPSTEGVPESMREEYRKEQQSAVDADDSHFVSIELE

Consider `CC1(C)CCNCC1` [Compound 19, 4,4-dimethylpiperidinium chloride], for which the remaining activity at 100 µM was 75%.

As for `Cc1cc(CN2CCC3(CCCCC3)CC2)no1` [Compound 5, 3-(3-azaspiro[5,5]undecan-3-ylmethyl)-5-methylisoxazole], the remaining activity at 100 µM worked out at 100%. Turning to `c1ncc(CN2CCC3(CCCCC3)CC2)[nH]1` [Compound 7, 3-((1H-imidazol-4-yl)methyl)-3-azaspiro[5.5]undecane], the “inhibition of AM2 (in words)” value is on record as “moderate inhibition” and the remaining activity at 100 µM was found to be 70%. On to `CCC1(C)CCNCC1` [Compound 20, 4-ethyl-4-methylpiperidinium chloride], for which the remaining activity at 100 µM came out at 87%. Same read-out and setting: the value for `C1CCC2(CC1)CCN(CC1CCCC1)CC2` [Compound 2, 3-(cyclopentylmethyl)-3-azaspiro[5,5]undecane] was 100%; that for `c1cc(CN2CCC3(CCCCC3)CC2)cs1` [Compound 3, 3-(thiophen-3-ylmethyl)-3-azaspiro[5,5]undecane] was 90%; that for `C1CCC2(CC1)CCN(CC1CC1)CC2` [Compound 1, 3-(cyclopropylmethyl)-3-azaspiro[5,5]undecane] was 100%. For `c1ccc(CN2CCC3(CCCCC3)CC2)nc1` [Compound 6, 3-(pyridin-2-ylmethyl)-3-azaspiro[5,5]undecane], the remaining activity at 100 µM came out at 100%. With `C1CCC2(CC1)CCN(C1=NCCN1)CC2` [BL-1743, 3-(4,5-dihydro-1H-imidazol-2-yl)-3-azaspiro[5,5]undecane hydroiodide, reference compound], the remaining activity at 100 µM came to 25%.

Consider `Cn1cc(CN2CCC3(CCCCC3)CC2)cn1` [Compound 4, 3-((1-methyl-1H-pyrazol-4-yl)methyl)-3-azaspiro[5,5]undecane], for which the remaining activity at 100 µM was 100%. For `c1c[nH]c(CN2CCC3(CCCCC3)CC2)n1` [Compound 8, 3-((1H-imidazol-2-yl)methyl)-3-azaspiro[5.5]undecane], the “inhibition of AM2 (in words)” value is “moderate inhibition” and the remaining activity at 100 µM is 49%.
